{"source": "patent US20250281513A1", "about": "“USE OF PS[…] TREAT […]” (priority 2021, published 2025)", "key": {"[1]": {"test_system": "amyloid precursor protein (APP)", "test": "Down regulation of APP in RAW cells by psychedelic drugs (Example 5)", "type": "cell-based", "settings": "post 2 hours treatment (FIG. 9)"}, "ABCF1 [2]": {"test_system": "ABCF1", "type": "cell-based, murine", "settings": "RAW264.7, 10 nM, 100 nM, 500 nM, 2 hours post treatment, normalized to GAPDH (FIG. 2)", "protocol": "• 1. Macrophage cell line RAW264.7 (ATCC) were grown to 80% confluency in growth media (DMEM+10% FBS+glutamine). • 2. Dilutions of the drugs were made at desired final concentrations for a Dose response experiment. The concentrations' used for this experiment are: 10 nM, 100 nM, 500 nM for Psilocin, Psylocibin, 4-Acetoxy-N, N-dimthyltryptamine, O-Acetyl Psilocin Fumerate, and 4-acetoxyindole. • 3. Untreated cells were used as negative control and Escitalopram at 0.3 mM was used as a positive control to activate ABCF1 expression for all the experiments. Analysis by qPCR:\n• 1. 2 hours post treatment with drugs, the reaction was stopped by removing the media with the drug. Cells were then collected and RNA was isolated from these. • 2. After checking the quality of the RNA, cDNA was generated and qPCR was run with ABCF1 primers as the target gene and GAPDH as the house keeping gene. • 3. Normalized against the expression level of GAPDH, the fold change expression level of ABCF1 was calculated and tabulated for all treatment conditions."}, "ABCF1 [3]": {"test_system": "ABCF1", "test": "Escitalopram induces ABCF1 in a macrophage cell line (real time RT-PCR)", "type": "cell-based", "settings": "RAW macrophages, 0.3 mM, 1 hour", "protocol": "RAW macrophages were plated at 1×10^5 cells/well and cultured for 2 days. The cells were incubated with 0.3 mM Escitalopram for 1 hour, and then harvested for total RNA, which was extracted for real time RT-PCR specific for ABCF1 and IL-4. CT values were normalized with CT value for the housekeeping gene from the DMSO control."}}, "note": "Where two headings read alike, the source gives them in different places."}
{"smiles": "CC(=O)Oc1cccc2[nH]ccc12", "note": "[AOI, 4-acetoxyindole]", "values": [{"measurement": "amyloid precursor protein (APP) expression", "setting": "[1]", "value": "down regulation"}, {"measurement": "ABCF1 transcription / expression", "setting": "ABCF1 [2]", "value": "enhance expression of ABCF1"}]}
{"smiles": "CC(=O)Oc1cccc2[nH]cc(CCN(C)C)c12.O=C(O)/C=C/C(=O)O", "note": "[APF, O-Acetyl Psilocin Fumerate]", "values": [{"measurement": "amyloid precursor protein (APP) expression", "setting": "[1]", "value": "down regulation"}, {"measurement": "ABCF1 transcription / expression", "setting": "ABCF1 [2]", "value": "enhance expression of ABCF1"}]}
{"smiles": "CN(C)CCC[C@@]1(c2ccc(F)cc2)OCc2cc(C#N)ccc21", "note": "[Escitalopram]", "values": [{"measurement": "ABCF1 expression", "setting": "ABCF1 [3]; vs DMSO control (FIG. 1)", "value": "induces ABCF1 expression"}, {"measurement": "difference in the expression (ABCF1 and IL-4) after drug treatment", "setting": "ABCF1 [3]; 3 separate experiments", "value": "consistent with polarization towards an M2-like phenotype"}]}
{"smiles": "CN(C)CCc1c[nH]c2cccc(O)c12", "note": "[psilocin, 4-hydroxy-N,N-dimethyltryptamine, reference compound]", "values": [{"measurement": "ABCF1 transcription / expression", "setting": "ABCF1 [2]", "value": "enhance expression of ABCF1"}, {"measurement": "ABCF1 transcription / expression", "setting": "ABCF1 [2]; listed as psylocin", "value": "upregulate ABCF1 transcription"}]}
